Tested on: 282377-053-R-J1-PDC complex spheroid viability
Test: Anticancer human tumor 282377-053-R-J1-PDC patient-derived colon adenocarcinoma cell line growth inhibition [RAS]
Details: for IC50: curve of first compound; for viability, T/C: stronger effect = lower value
Outline: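 Multi-cell-type spheroids: tumor cells plus HUVEC endothelial cells and mesenchymal stem cells. RAS-pathway inhibitors were combined with targeted agents, each dosed in half-log steps down from clinical Cmax, or from 10 microM when Cmax was unknown.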
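Further: spheroids exposed to agents for seven days before readout.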
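Wherever viability, T/C is given: luminescence viability as percent of DMSO vehicle control wells.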

**Q.** With `CCc1c2c(nc3ccc(O)cc13)-c1cc3c(c(=O)n1C2)COC(=O)[C@]3(O)CC` + CCn1c(-c2cc(N3CCN(C)CC3)cnc2C(C)OC)c2c3cc(ccc31)-c1csc(n1)CC(NC(=O)C1CC1C)C(=O)N1CCCC(N1)C(=O)OCC(C)(C)C2 as the compound, how does the IC50 (second compound 0.000949 µM) read?
**A.** The IC50 was over 300 nM.

**Q.** And the IC50 (second compound 0.003 µM)?
**A.** The IC50 was over 300 nM.

**Q.** What about the IC50 (second compound 0.00949 µM) of the same compound?
**A.** Its IC50 is over 300 nM.

**Q.** And the IC50 (second compound 0.03 µM)?
**A.** Its IC50 is over 300 nM.

**Q.** And the IC50 (second compound 0.0949 µM)?
**A.** The IC50 was over 300 nM.

**Q.** And the IC50 (second compound 0.3 µM)?
**A.** The IC50 was over 300 nM.

**Q.** And the viability, T/C (second compound 0.000949 µM, first compound 0.000949 µM)?
**A.** Its viability, T/C is 130%.

**Q.** And the viability, T/C (second compound 0.000949 µM, first compound 0.003 µM)?
**A.** Its viability, T/C is 112%.

**Q.** And the viability, T/C (second compound 0.000949 µM, first compound 0.00949 µM)?
**A.** Its viability, T/C is 153%.

**Q.** And the viability, T/C (second compound 0.000949 µM, first compound 0.03 µM)?
**A.** Its viability, T/C is 124%.

**Q.** What about the viability, T/C (second compound 0.000949 µM, first compound 0.0949 µM) of the same compound?
**A.** Its viability, T/C is 86.5%.

**Q.** What about the viability, T/C (second compound 0.000949 µM, first compound 0.3 µM) of the same compound?
**A.** The viability, T/C was 81%.

**Q.** What about the viability, T/C (second compound 0.003 µM, first compound 0.000949 µM) of the same compound?
**A.** Its viability, T/C is 109%.

**Q.** And the viability, T/C (second compound 0.003 µM, first compound 0.003 µM)?
**A.** Its viability, T/C is 114%.

**Q.** What about the viability, T/C (second compound 0.003 µM, first compound 0.00949 µM) of the same compound?
**A.** Its viability, T/C is 151%.

**Q.** What about the viability, T/C (second compound 0.003 µM, first compound 0.03 µM) of the same compound?
**A.** Its viability, T/C is 107%.

**Q.** What about the viability, T/C (second compound 0.003 µM, first compound 0.0949 µM) of the same compound?
**A.** The viability, T/C was 119%.

**Q.** And the viability, T/C (second compound 0.003 µM, first compound 0.3 µM)?
**A.** Its viability, T/C is 66.2%.

**Q.** What about the viability, T/C (second compound 0.00949 µM, first compound 0.000949 µM) of the same compound?
**A.** Its viability, T/C is 107%.

**Q.** And the viability, T/C (second compound 0.00949 µM, first compound 0.003 µM)?
**A.** The viability, T/C was 112%.

**Q.** What about the viability, T/C (second compound 0.00949 µM, first compound 0.00949 µM) of the same compound?
**A.** The viability, T/C was 136%.

**Q.** And the viability, T/C (second compound 0.00949 µM, first compound 0.03 µM)?
**A.** The viability, T/C was 105%.

**Q.** And the viability, T/C (second compound 0.00949 µM, first compound 0.0949 µM)?
**A.** Its viability, T/C is 112%.

**Q.** What about the viability, T/C (second compound 0.00949 µM, first compound 0.3 µM) of the same compound?
**A.** The viability, T/C was 77.2%.

**Q.** What about the viability, T/C (second compound 0.03 µM, first compound 0.000949 µM) of the same compound?
**A.** The viability, T/C was 116%.

**Q.** And the viability, T/C (second compound 0.03 µM, first compound 0.003 µM)?
**A.** The viability, T/C was 102%.

**Q.** And the viability, T/C (second compound 0.03 µM, first compound 0.00949 µM)?
**A.** The viability, T/C was 139%.

**Q.** And the viability, T/C (second compound 0.03 µM, first compound 0.03 µM)?
**A.** The viability, T/C was 122%.

**Q.** What about the viability, T/C (second compound 0.03 µM, first compound 0.0949 µM) of the same compound?
**A.** Its viability, T/C is 118%.

**Q.** And the viability, T/C (second compound 0.03 µM, first compound 0.3 µM)?
**A.** The viability, T/C was 65.4%.

**Q.** And the viability, T/C (second compound 0.0949 µM, first compound 0.000949 µM)?
**A.** The viability, T/C was 115%.

**Q.** And the viability, T/C (second compound 0.0949 µM, first compound 0.003 µM)?
**A.** Its viability, T/C is 122%.

**Q.** And the viability, T/C (second compound 0.0949 µM, first compound 0.00949 µM)?
**A.** Its viability, T/C is 162%.

**Q.** What about the viability, T/C (second compound 0.0949 µM, first compound 0.03 µM) of the same compound?
**A.** Its viability, T/C is 131%.

**Q.** What about the viability, T/C (second compound 0.0949 µM, first compound 0.0949 µM) of the same compound?
**A.** Its viability, T/C is 116%.

**Q.** And the viability, T/C (second compound 0.0949 µM, first compound 0.3 µM)?
**A.** The viability, T/C was 69.4%.

**Q.** And the viability, T/C (second compound 0.3 µM, first compound 0.000949 µM)?
**A.** Its viability, T/C is 131%.

**Q.** And the viability, T/C (second compound 0.3 µM, first compound 0.003 µM)?
**A.** Its viability, T/C is 131%.

**Q.** And the viability, T/C (second compound 0.3 µM, first compound 0.00949 µM)?
**A.** Its viability, T/C is 161%.

**Q.** What about the viability, T/C (second compound 0.3 µM, first compound 0.03 µM) of the same compound?
**A.** Its viability, T/C is 104%.

**Q.** What about the viability, T/C (second compound 0.3 µM, first compound 0.0949 µM) of the same compound?
**A.** The viability, T/C was 109%.

**Q.** What about the viability, T/C (second compound 0.3 µM, first compound 0.3 µM) of the same compound?
**A.** The viability, T/C was 77.9%.

**Q.** Which results are given for `C=CC(=O)Nc1cc(Nc2nccc(-c3cn(C)c4ccccc34)n2)c(OC)cc1N(C)CCN(C)C` + CCn1c(-c2cccnc2C(C)OC)c2c3cc(ccc31)N1CCOC(CC(NC(=O)C(C(C)C)N(C)C(=O)C3(F)CCN(C(=O)C#CC(C)(C)N(C)C)CC3)C(=O)N3CCCC(N3)C(=O)OCC(C)(C)C2)C1?
**A.** IC50 (second compound 0.000949 µM): > 1000 nM; IC50 (second compound 0.003 µM): > 1000 nM; IC50 (second compound 0.00949 µM): > 1000 nM; IC50 (second compound 0.03 µM): > 1000 nM; IC50 (second compound 0.0949 µM): > 1000 nM; IC50 (second compound 0.3 µM): > 1000 nM; viability, T/C (second compound 0.000949 µM, first compound 0.00316 µM): 99%; viability, T/C (second compound 0.000949 µM, first compound 0.01 µM): 126%; viability, T/C (second compound 0.000949 µM, first compound 0.0316 µM): 127%; viability, T/C (second compound 0.000949 µM, first compound 0.1 µM): 92%; viability, T/C (second compound 0.000949 µM, first compound 0.316 µM): 86%; viability, T/C (second compound 0.000949 µM, first compound 1 µM): 123%; viability, T/C (second compound 0.003 µM, first compound 0.00316 µM): 109%; viability, T/C (second compound 0.003 µM, first compound 0.01 µM): 177%; viability, T/C (second compound 0.003 µM, first compound 0.0316 µM): 108%; viability, T/C (second compound 0.003 µM, first compound 0.1 µM): 81%; viability, T/C (second compound 0.003 µM, first compound 0.316 µM): 92.6%; viability, T/C (second compound 0.003 µM, first compound 1 µM): 88%; viability, T/C (second compound 0.00949 µM, first compound 0.00316 µM): 88%; viability, T/C (second compound 0.00949 µM, first compound 0.01 µM): 188%; viability, T/C (second compound 0.00949 µM, first compound 0.0316 µM): 98%; viability, T/C (second compound 0.00949 µM, first compound 0.1 µM): 84.8%; viability, T/C (second compound 0.00949 µM, first compound 0.316 µM): 91.5%; viability, T/C (second compound 0.00949 µM, first compound 1 µM): 119%; viability, T/C (second compound 0.03 µM, first compound 0.00316 µM): 102%; viability, T/C (second compound 0.03 µM, first compound 0.01 µM): 140%; viability, T/C (second compound 0.03 µM, first compound 0.0316 µM): 113%; viability, T/C (second compound 0.03 µM, first compound 0.1 µM): 114%; viability, T/C (second compound 0.03 µM, first compound 0.316 µM): 86.9%; viability, T/C (second compound 0.03 µM, first compound 1 µM): 97.4%; viability, T/C (second compound 0.0949 µM, first compound 0.00316 µM): 95.8%; viability, T/C (second compound 0.0949 µM, first compound 0.01 µM): 153%; viability, T/C (second compound 0.0949 µM, first compound 0.0316 µM): 93.9%; viability, T/C (second compound 0.0949 µM, first compound 0.1 µM): 98.5%; viability, T/C (second compound 0.0949 µM, first compound 0.316 µM): 87.1%; viability, T/C (second compound 0.0949 µM, first compound 1 µM): 124%; viability, T/C (second compound 0.3 µM, first compound 0.00316 µM): 85.7%; viability, T/C (second compound 0.3 µM, first compound 0.01 µM): 134%; viability, T/C (second compound 0.3 µM, first compound 0.0316 µM): 99.5%; viability, T/C (second compound 0.3 µM, first compound 0.1 µM): 102%; viability, T/C (second compound 0.3 µM, first compound 0.316 µM): 97.2%; viability, T/C (second compound 0.3 µM, first compound 1 µM): 121%

From PubChem BioAssay AID2060905 (Molecular Pharmacology Branch, DTP, NCI, 2025)
